“And” between values parts separate entries of the source, which are not always exact repeats. Equal values may be shown once. Read-outs that look alike come from different tables or passages of the source.
Legend:
[1] = molecular target: EP4; design: method as in Ganesh et al, 2013; settings: antagonism towards EP4; ref Ganesh et al, 2013; cited from earlier work
[2] = molecular target: T1, EP4 I317A (Homo sapiens, UniProt P35408, I317A); test: GloSensor cAMP assay, antagonism of PGE2-induced cAMP; type: cell-based; settings: for cAMP activity (∆pIC50 from EP4 WT): TG6-129, I317A
T1 construct: The full-length EP2 or EP4 was cloned into the pcDNA3.1 vector; FLAG (N); expressed in transfected cells; host or cells: AD293 cells

[3] = molecular target: T2, EP2 E23A (Homo sapiens, UniProt P43116, E23A); test: as above; type: cell-based
T2 construct: The full-length EP2 or EP4 was cloned into the pcDNA3.1 vector; FLAG (N); expressed in transfected cells; host or cells: AD293 cells
Outline: (§1)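 Read-out is GloSensor luminescence from AD293 cells co-expressing FLAG-tagged EP2 variant and GloSensor22F biosensor, transfected at a 1:1 plasmid ratio. Cells were plated at 4000 per well in CO2-independent medium containing 2% cAMP reagent, incubated 1 h at 37 °C, then read.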

[4] = molecular target: T3, EP2 S28A (Homo sapiens, UniProt P43116, S28A); test: as above; type: cell-based; settings: for cAMP activity (∆pIC50 from EP2 WT): TG6-129, S28A
T3 construct: The full-length EP2 or EP4 was cloned into the pcDNA3.1 vector; FLAG (N); expressed in transfected cells; host or cells: AD293 cells
Outline: as §1

[5] = molecular target: EP2; design: method as in Ganesh et al, 2013; settings: antagonism towards EP2; ref Ganesh et al, 2013; cited from earlier work
[6] = molecular target: T4, constitutively active EP4 I317A (Homo sapiens, UniProt P35408, I317A); test: GloSensor cAMP assay, inhibition of constitutive activity; type: cell-based
T4 construct: The full-length EP2 or EP4 was cloned into the pcDNA3.1 vector (Invitrogen), incorporating an N-terminal FLAG tag; expressed in transfected cells; host or cells: AD293

[7] = molecular target: T5, constitutively active EP4 WT (Homo sapiens, UniProt P35408); test: as above; type: cell-based
T5 construct: The full-length EP2 or EP4 was cloned into the pcDNA3.1 vector (Invitrogen), incorporating an N-terminal FLAG tag; expressed in transfected cells; host or cells: AD293

[8] = molecular target: T6, constitutively active EP2 S28A (Homo sapiens, UniProt P43116, S28A); test: as above; type: cell-based
T6 construct: The full-length EP2 or EP4 was cloned into the pcDNA3.1 vector; FLAG (N); expressed in transfected cells; host or cells: AD293 cells
Outline: as §1

[9] = molecular target: T7, constitutively active EP2 E23A (Homo sapiens, UniProt P43116, E23A); test: as above; type: cell-based
T7 construct: The full-length EP2 or EP4 was cloned into the pcDNA3.1 vector; FLAG (N); expressed in transfected cells; host or cells: AD293 cells
Outline: as §1

[10] = 1 h, TG6-129 log([M]) -12, read-out: % cAMP activity (normalized to WT)
[11] = no PGE2, pIC50 mutant - pIC50 WT, mean

T7 sequence (P43116 whole entry E23A): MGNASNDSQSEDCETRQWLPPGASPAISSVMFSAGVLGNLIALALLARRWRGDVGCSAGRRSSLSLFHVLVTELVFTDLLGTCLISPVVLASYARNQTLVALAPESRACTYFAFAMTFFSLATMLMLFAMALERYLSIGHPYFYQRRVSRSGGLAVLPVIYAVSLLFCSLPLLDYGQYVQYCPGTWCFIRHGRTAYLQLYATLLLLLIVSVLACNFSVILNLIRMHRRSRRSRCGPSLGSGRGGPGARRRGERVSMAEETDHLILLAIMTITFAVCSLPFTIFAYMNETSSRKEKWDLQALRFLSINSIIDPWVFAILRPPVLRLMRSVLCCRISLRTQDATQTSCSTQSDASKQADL
T2 sequence (P43116 whole entry E23A): as above
T6 sequence (P43116 whole entry S28A): as the sequence (P43116 whole entry E23A) above, with A23E, S28A counted along it
T3 sequence (P43116 whole entry S28A): as the sequence (P43116 whole entry E23A) above, with A23E, S28A counted along it
T4 sequence (P35408 whole entry I317A): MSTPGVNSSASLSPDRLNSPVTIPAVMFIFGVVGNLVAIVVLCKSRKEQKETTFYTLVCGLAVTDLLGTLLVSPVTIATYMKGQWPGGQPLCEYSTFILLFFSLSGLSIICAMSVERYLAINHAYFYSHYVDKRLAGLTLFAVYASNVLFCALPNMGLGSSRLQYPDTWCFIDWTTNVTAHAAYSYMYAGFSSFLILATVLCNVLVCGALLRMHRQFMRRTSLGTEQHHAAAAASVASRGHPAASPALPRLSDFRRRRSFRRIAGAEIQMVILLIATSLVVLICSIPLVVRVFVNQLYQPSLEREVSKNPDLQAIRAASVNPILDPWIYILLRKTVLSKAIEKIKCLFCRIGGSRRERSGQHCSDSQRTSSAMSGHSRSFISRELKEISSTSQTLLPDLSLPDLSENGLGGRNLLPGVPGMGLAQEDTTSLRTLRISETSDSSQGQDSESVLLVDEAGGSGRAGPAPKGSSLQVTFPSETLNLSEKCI
T1 sequence (P35408 whole entry I317A): as above
T5 sequence (P35408 whole entry): as the sequence (P35408 whole entry I317A) above, with A317I counted along it

IC50 [2]: 10.7 µM | remaining activity at 100 µM ([2]; 1 h, TG6-129 log([M]) -4.00, read-out: % cAMP activity (normalized to WT)): 16.3% | remaining activity at […] ([2]; 1 h, TG6-129 log([M]) -4.70, read-out: % cAMP activity (normalized to WT)): 19.5% | remaining activity at […] ([2]; 1 h, TG6-129 log([M]) -5.40, read-out: % cAMP activity (normalized to WT)): 47.7% | remaining activity at […] ([2]; 1 h, TG6-129 log([M]) -6.10, read-out: % cAMP activity (normalized to WT)): 54.4% | remaining activity at 0.1585 µM ([2]; 1 h, TG6-129 log([M]) -6.80, read-out: % cAMP activity (normalized to WT)): 59.7% | remaining activity at 0.03236 µM ([2]; 1 h, TG6-129 log([M]) -7.49, read-out: % cAMP activity (normalized to WT)): 57.3% | remaining activity at 0.006457 µM ([2]; 1 h, TG6-129 log([M]) -8.19, read-out: % cAMP activity (normalized to WT)): 60.6% | remaining activity at 0.001288 µM ([2]; 1 h, TG6-129 log([M]) -8.89, read-out: % cAMP activity (normalized to WT)): 53.5% | cAMP activity (∆pIC50 from EP4 WT) ([2]; Mean): 0.074 | cAMP activity (∆pIC50 from EP4 WT) ([2]; single experiments 1st-3rd): 0.047 and -0.037 and 0.211 | IC50 [3]: 0.0204 µM | remaining activity at 1 pM [3, 10]: 74.1% | cAMP activity (∆pIC50 from EP2 WT) ([3]; TG6-129, E23A, Mean): 0.563 | IC50 [4]: 0.0363 µM | remaining activity at 10 pM ([4]; 1 h, TG6-129 log([M]) -11, read-out: % cAMP activity (normalized to WT)): 109% | remaining activity at 1 pM [4, 10]: 106% | cAMP activity (∆pIC50 from EP2 WT) ([4]; Mean): 0.282 | cAMP activity (∆pIC50 from EP2 WT) ([4]; single experiments 1st-3rd): 0.159 and 0.319 and 0.367 | IC50 [6]: 3.55 µM | remaining activity at 100 µM ([6]; 1 h, TG6-129 log([M]) -4.00, EP4-I317A, read-out: % cAMP activity (normalized to WT)): 6.11% | remaining activity at […] ([6]; 1 h, TG6-129 log([M]) -4.70, EP4-I317A, read-out: % cAMP activity (normalized to WT)): 11.7% | remaining activity at […] ([6]; 1 h, TG6-129 log([M]) -5.40, EP4-I317A, read-out: % cAMP activity (normalized to WT)): 33.6% | remaining activity at […] ([6]; 1 h, TG6-129 log([M]) -6.10, EP4-I317A, read-out: % cAMP activity (normalized to WT)): 68.9% | remaining activity at 0.1585 µM ([6]; 1 h, TG6-129 log([M]) -6.80, EP4-I317A, read-out: % cAMP activity (normalized to WT)): 80.8% | remaining activity at 0.03236 µM ([6]; 1 h, TG6-129 log([M]) -7.49, EP4-I317A, read-out: % cAMP activity (normalized to WT)): 80.3% | remaining activity at 0.006457 µM ([6]; 1 h, TG6-129 log([M]) -8.19, EP4-I317A, read-out: % cAMP activity (normalized to WT)): 83% | remaining activity at 0.001288 µM ([6]; 1 h, TG6-129 log([M]) -8.89, EP4-I317A, read-out: % cAMP activity (normalized to WT)): 79.7% | TG6-129 cAMP activity (∆pIC50 from EP4 WT), Mean ([6]; I317A, Mean): 0.256 | ΔpIC50 [6, 11]: 0.26 ± 0.11 | IC50 [7]: 5.01 µM | remaining activity at 100 µM ([7]; 1 h, TG6-129 log([M]) -4.00, EP4-WT, read-out: % cAMP activity (normalized to WT)): 7.78% | remaining activity at […] ([7]; 1 h, TG6-129 log([M]) -4.70, EP4-WT, read-out: % cAMP activity (normalized to WT)): 22.1% | remaining activity at […] ([7]; 1 h, TG6-129 log([M]) -5.40, EP4-WT, read-out: % cAMP activity (normalized to WT)): 65.6% | remaining activity at […] ([7]; 1 h, TG6-129 log([M]) -6.10, EP4-WT, read-out: % cAMP activity (normalized to WT)): 88.8% | remaining activity at 0.1585 µM ([7]; 1 h, TG6-129 log([M]) -6.80, EP4-WT, read-out: % cAMP activity (normalized to WT)): 91.8% | remaining activity at 0.03236 µM ([7]; 1 h, TG6-129 log([M]) -7.49, EP4-WT, read-out: % cAMP activity (normalized to WT)): 96% | remaining activity at 0.006457 µM ([7]; 1 h, TG6-129 log([M]) -8.19, EP4-WT, read-out: % cAMP activity (normalized to WT)): 103% | remaining activity at 0.001288 µM ([7]; 1 h, TG6-129 log([M]) -8.89, EP4-WT, read-out: % cAMP activity (normalized to WT)): 106% | TG6-129 cAMP activity (∆pIC50 from EP4 WT) ([7]; WT, single experiments 1st-3rd): -0.065 and 0.051 and 0.101 | IC50 [8]: 0.0389 µM | remaining activity at 10 µM ([8]; 1 h, TG6-129 log([M]) -5, EP2-S28A, read-out: % cAMP activity (normalized to WT)): 8.3% | remaining activity at 1 µM ([8]; 1 h, TG6-129 log([M]) -6, EP2-S28A, read-out: % cAMP activity (normalized to WT)): 8.69% | remaining activity at 0.001 µM ([8]; 1 h, TG6-129 log([M]) -9, EP2-S28A, read-out: % cAMP activity (normalized to WT)): 255% | TG6-129 cAMP activity (∆pIC50 from EP2 WT), Mean ([8]; S28A, Mean): 0.422 | TG6-129 cAMP activity (∆pIC50 from EP2 WT) ([8]; S28A, single experiments 1st-3rd): 0.401 and 0.405 and 0.460 | ΔpIC50 [8, 11]: 0.42 ± 0.02 | IC50 [9]: 0.0316 µM | remaining activity at 10 µM ([9]; 1 h, TG6-129 log([M]) -5, EP2-E23A, read-out: % cAMP activity (normalized to WT)): 5.62% | remaining activity at 1 µM ([9]; 1 h, TG6-129 log([M]) -6, EP2-E23A, read-out: % cAMP activity (normalized to WT)): 4.15% | remaining activity at 0.1 µM ([9]; 1 h, TG6-129 log([M]) -7, EP2-E23A, read-out: % cAMP activity (normalized to WT)): 17.9% | remaining activity at 0.001 µM ([9]; 1 h, TG6-129 log([M]) -9, EP2-E23A, read-out: % cAMP activity (normalized to WT)): 93.8% | remaining activity at 0.0001 µM ([9]; 1 h, TG6-129 log([M]) -10, EP2-E23A, read-out: % cAMP activity (normalized to WT)): 108% | remaining activity at 10 pM ([9]; 1 h, TG6-129 log([M]) -11, EP2-E23A, read-out: % cAMP activity (normalized to WT)): 111% | remaining activity at 1 pM ([9]; 1 h, TG6-129 log([M]) -12, EP2-E23A, read-out: % cAMP activity (normalized to WT)): 98% | TG6-129 cAMP activity (∆pIC50 from EP2 WT), Mean ([9]; E23A, Mean): 0.363 | TG6-129 cAMP activity (∆pIC50 from EP2 WT) ([9]; E23A, single experiments 1st-3rd): 0.381 and 0.341 and 0.367 | ΔpIC50 [9, 11]: 0.36 ± 0.01
Compound: CCc1nnc(NS(=O)(=O)c2ccc(NC(=S)NC(=O)/C=C/c3ccc(F)cc3)cc2)s1 [TG6-129]
Kd [1]: 3.9 µM | Kd [5]: 0.0088 µM

— PMC12669672, “Structural insights into selective and dual antagonism of EP2 and EP4 prostaglandin receptors” (The EMBO Journal, 2025)
